# Reference: PubChem BioAssay (NCI)
# “And” between values parts separate entries of the source, which are not always exact repeats. Equal entries are not always repeated.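 Each compound was tested at five concentrations against cells in 96-well plates for 48 hours. The concentration for 50% growth inhibition is given as GI50. TGI: total growth inhibition.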
# How the values were obtained:
# Experiment in all cases: inhibition of tumour cell growth, NCI panel, 48 h
# SF-268 CNS = tested on: SF-268 CNS
# SNB-19 CNS = tested on: SNB-19 CNS
# SW-620 colon = tested on: SW-620 colon
# SF-295 CNS = tested on: SF-295 CNS
# SK-OV-3 ovarian = tested on: SK-OV-3 ovarian
# DU-145 prostate = tested on: DU-145 prostate
# CAKI-1 renal = tested on: CAKI-1 renal
# U251 CNS = tested on: U251 CNS
# MDA-MB-435 = tested on: MDA-MB-435
# IGROV1 ovarian = tested on: IGROV1 ovarian
SMILES,GI50 (SF-268 CNS),TGI (SF-268 CNS),GI50 (SNB-19 CNS),TGI (SNB-19 CNS),GI50 (SW-620 colon),TGI (SW-620 colon),GI50 (SF-295 CNS),TGI (SF-295 CNS),GI50 (SK-OV-3 ovarian),TGI (SK-OV-3 ovarian),GI50 (DU-145 prostate) [µM],TGI (DU-145 prostate) [µM],GI50 (CAKI-1 renal),TGI (CAKI-1 renal),GI50 (U251 CNS),TGI (U251 CNS),GI50 (MDA-MB-435) [µM],TGI (MDA-MB-435) [µM],GI50 (IGROV1 ovarian),TGI (IGROV1 ovarian)
Cc1ccc(Cl)cc1-n1c(C)nc2c(cnn2-c2ccnc3c(C(F)(F)F)cccc23)c1=O,> 100 µM,> 100 µM,> 100 µM,> 100 µM,> 100 µM,> 100 µM,> 100 µM,> 100 µM,> 100 µM,> 100 µM,> 100,> 100,> 100 µM,> 100 µM,> 100 µM,> 100 µM,> 100,> 100,> 100 µM,> 100 µM
O=S(=O)(NCCCNc1cc(-c2cn(-c3ccccc3)nc2-c2cccc(O)c2)ccn1)c1ccc(F)cc1,3.65 µM,22.9 µM,4.67 µM,52.3 µM,3.76 µM,14.2 µM,1.95 µM,4.09 µM,4.44 µM,23.5 µM,4.12,36.7,4.56 µM,44.6 µM,2.97 µM,10.3 µM,3.36,12.9,4.29 µM,33.5 µM
COc1c(CC=C(C)C)c(O)c(C(CC(C)C)c2c(O)c(CC=C(C)C)c(O)c(C(C)=O)c2O)c(O)c1C(C)=O (configuration not stated),,8.12 µM,,15.2 µM,,5.8 µM,,2.28 µM,,11.1 µM,,16.5,,11.7 µM,,11.2 µM,,6.47,,13.4 µM
COc1ccc(S(=O)(=O)N2CCNCC2)cc1OC,> 100 µM,> 100 µM,> 100 µM,> 100 µM,> 100 µM,> 100 µM,> 100 µM,> 100 µM,> 100 µM,> 100 µM,> 100,> 100,> 100 µM,> 100 µM,> 100 µM,> 100 µM,> 100,> 100,> 100 µM,> 100 µM
c1ccc2c(CNCCN3CCNCC3)c3ccccc3c(CNCCN3CCNCC3)c2c1,12.4 µM,33.3 µM,20.7 µM,> 100 µM,16.4 µM,49.3 µM,17.8 µM,43.5 µM,24.5 µM,79.8 µM,7.26,33.2,> 100 µM,> 100 µM,14.8 µM,40.3 µM,11.7,27.2,19.8 µM,85.3 µM
N#CC1C(N)=NNC12Nc1ccccc1S2 (configuration not stated),62.9 µM,> 100 µM,28.6 µM,> 100 µM,31.2 µM,> 100 µM,17.2 µM,64.2 µM,25.9 µM,> 100 µM,15.6,55.3,23.4 µM,> 100 µM,5.84 µM,20.3 µM,13.9,51.3,3.22 µM,20.6 µM
CSC1=Nc2c(c(C)c(-c3ccccc3)n2COC(CO)CO)C2=NC(=O)CN12,> 100 µM,> 100 µM,> 100 µM,> 100 µM,> 100 µM,> 100 µM,> 100 µM,> 100 µM,> 100 µM,> 100 µM,> 100,> 100,> 100 µM,> 100 µM,> 100 µM,> 100 µM,> 100,> 100,0.421 µM,42.8 µM
Cn1c(C(=O)c2cccc3ccccc23)nc2ccccc21,> 100 µM,> 100 µM,> 100 µM,> 100 µM,> 100 µM,> 100 µM,> 100 µM,> 100 µM,> 100 µM,> 100 µM,> 100,> 100,61 µM,> 100 µM,> 100 µM,> 100 µM,> 100,> 100,> 100 µM,> 100 µM
CCn1ccnc1C(=O)/C=C/c1ccc(CC(=O)Nc2ccc(F)cc2)cc1,3.81 µM,> 16.7 µM,3.58 µM,> 16.7 µM,4.29 µM,> 16.7 µM,4.41 µM,> 16.7 µM,6.97 µM,> 16.7 µM,4.45,> 16.7,5.08 µM,> 16.7 µM,1.88 µM,7.94 µM,4.58,> 16.7,4.63 µM,> 16.7 µM
N#Cc1cccc(Nc2ncc(-c3ccccc3)o2)c1,17.3 µM,> 25 µM,17.3 µM,> 25 µM,22.4 µM,> 25 µM,9.99 µM,> 25 µM,8.4 µM,19.6 µM,16,> 25,8.44 µM,> 25 µM,10.6 µM,> 25 µM,> 25,> 25,11.7 µM,> 25 µM
COc1cc2c(cc1NC(=O)C(Cl)Cl)-c1ccc(NC(=O)C(Cl)Cl)cc1C2,0.384 µM,1.94 µM,0.461 µM,2.06 µM,0.264 µM,0.935 µM,0.371 µM,1.12 µM,6.67 µM,20.6 µM,0.265,0.804,1.01 µM,4.04 µM,0.245 µM,0.708 µM,0.378,1.12,1.16 µM,5.58 µM
COC1=C(OC)[C@]2(OC)c3c(O)c(OC)c4c(c3O[C@@]23O[C@@H](c2ccccc2)CC=C3C1=O)[C@@H](OC)C[C@H](c1ccccc1)O4,0.806 µM,2.84 µM,1.81 µM,3.51 µM,0.178 µM,0.933 µM,1.56 µM,2.97 µM,1.91 µM,3.56 µM,2.09,3.75,0.51 µM,1.88 µM,1.41 µM,2.74 µM,0.301,1.1,0.374 µM,1.41 µM
C=C1C(=O)O[C@H]2[C@H]1CC/C(COC(=O)NCc1c[nH]c3ccc(F)cc13)=C\CC[C@@]1(C)O[C@@H]21,1.81 µM,3.9 µM,6.56 µM,20 µM,0.619 µM,2.65 µM,4.29 µM,16.6 µM,11.1 µM,23.1 µM,1.08,2.48,1.53 µM,3.18 µM,2.35 µM,5.81 µM,1.31,3.1,1.54 µM,3.34 µM
C/C(=N\NC(=S)N1CCN(c2ccccn2)CC1)c1ncccn1,0.791 µM,1.47 µM and 14.6 µM,,19 µM,0.038 µM,5.18 µM and 17.8 µM,0.0934 µM,5.83 µM and 6.76 µM,0.0884 µM,4.47 µM and 13 µM,3.17,18.8,0.447 µM,16 µM,0.0796 µM,5.45 µM and 11.8 µM,0.414,11.9,< 0.0121 µM,4.31 µM and 16.3 µM
COc1c(OC(C)C)cc2cc(O)c(C(=O)NC3Cc4ccc(c(Cl)n4)O[C@@H]4C=C5C#C/C(=C\C#CC6OC56C4OC4CC(C)(O)C(O)C(C)O4)C(OC4CC(O)C(N(C)C)C(C)O4)COC3=O)cc2c1OC (some centres not stated),11.5 µM and 0.838 µg/mL,> 36.3 µM and 17.3 µg/mL,17.7 µM and 0.956 µg/mL,> 36.3 µM and 37.5 µg/mL,0.165 µg/mL,37.5 µg/mL,9.97 µM and 0.523 µg/mL,> 36.3 µM and 6.24 µg/mL,2.75 µg/mL,37.5 µg/mL,,> 36.3,0.897 µg/mL,> 36.3 µM and 37.5 µg/mL,5.61 µM and 0.596 µg/mL,> 36.3 µM and 9.98 µg/mL,,> 36.3,> 36.3 µM and 37.5 µg/mL,> 36.3 µM and 37.5 µg/mL
COc1ccc2nc3cc(Cl)ccc3c(N3CCN(c4ccnc(N5CCN(C)CC5)n4)CC3)c2c1,1.99 µM,3.89 µM,2.23 µM,5.44 µM,1.8 µM,3.53 µM,19.5 µM,54.1 µM,12.9 µM,26.2 µM,1.84,3.36,1.57 µM,3.07 µM,1.77 µM,3.43 µM,1.79,3.66,2.24 µM,5.08 µM
CC1CCN(CCOc2ccc(CNc3ccc4nc(CCC5CCCCC5)[nH]c4c3)cc2)CC1,1.68 µM,3.44 µM,2.03 µM,4.2 µM,1.7 µM,3.35 µM,1.87 µM,3.46 µM,1.81 µM,3.4 µM,2.52,6.9,1.87 µM,3.34 µM,1.44 µM,2.85 µM,1.64,3.07,1.59 µM,3.27 µM
CC(C)N(Cc1ccc(F)cc1)c1ccc(CO)c(Cl)c1,13.1 µM,26.4 µM,12.2 µM,25.3 µM,0.363 µM,15.3 µM,0.25 µM,11.8 µM,4.83 µM,17.9 µM,11.1,23.3,0.245 µM,2.02 µM,0.37 µM,14.4 µM,15,29.5,0.0479 µM,0.266 µM
O=S(=O)(NCCCNc1nccc(-c2c(-c3ccc(F)cc3)nc3sccn23)n1)c1ccc(F)cc1,20 µM,> 100 µM,62.1 µM,> 100 µM,33.2 µM,> 100 µM,20.6 µM,> 100 µM,17.1 µM,> 100 µM,10.8,> 100,7.8 µM,> 100 µM,8.87 µM,> 100 µM,3.69,> 100,8.85 µM,> 100 µM
CN(C)c1nc(N)c(C#N)c(C#N)c1C#N,,> 10 µM,,> 10 µM,,> 10 µM,,> 10 µM,,> 10 µM,,> 10,,> 10 µM,,> 10 µM,,> 10,,> 10 µM
CCOC(=O)C(Cc1ccc(N(CCCl)CCCl)cc1)NC(=O)C(Cc1ccccc1)NC(C)=O (configuration not stated),,> 0.288 µM,,> 0.578 µM,,> 1 µM,,> 0.501 µM,,> 0.44 µM,,> 1,,0.419 µM,,> 0.787 µM,,> 1,,> 0.308 µM
CN(C)CCCn1c2c(c3cc4c(cc3c1=O)OCO4)C(=O)c1ccccc1-2,13.9 µM,> 44.4 µM,2.84 µM,> 100 µM,0.85 µM,> 39.9 µM,3.12 µM,12.5 µM,4.99 µM,> 39.3 µM,3.08,> 27.5,3.01 µM,9.4 µM,0.081 µM,3.5 µM,1.49,5.81,3.33 µM,12.6 µM
CN1CCCC1c1cccnc1.O=C(O)c1ccccc1O.O=C([O-])c1ccccc1[OH2+].O=C([O-])c1ccccc1[OH2+].[Mn+2] (configuration not stated),31.6 µM,> 100 µM,> 100 µM,> 100 µM,64.3 µM,> 100 µM,> 100 µM,> 100 µM,> 100 µM,> 100 µM,> 100,> 100,> 100 µM,> 100 µM,> 100 µM,> 100 µM,> 100,> 100,> 100 µM,> 100 µM
COc1ccc(C2CC(c3ccc(N(C)C)cc3)=NN2c2ccc(S(N)(=O)=O)cc2)cc1 (configuration not stated),5.76 µM,> 100 µM,5.94 µM,> 100 µM,4.06 µM,> 100 µM,3.42 µM,> 100 µM,4.38 µM,> 100 µM,4.84,> 100,3.35 µM,> 100 µM,3.28 µM,> 100 µM,3.25,34.4,4.31 µM,> 100 µM
Cc1ccc(S(=O)(=O)NC(=O)OC23COCN2COC3)cc1,,> 100 µM,,> 100 µM,,> 100 µM,,> 100 µM,,> 100 µM,,> 100,,> 100 µM,,> 100 µM,,> 100,,> 100 µM
